Experimental data published in patent US8791143B2, “Anthranilic diamide derivatives having cyclic side-chains” (priority 2010, dated 2014).
Where two headings read alike, the source gives them in different places.

Tests used:
[1] = log P by HPLC on reversed-phase columns (EEC Directive 79/831 Annex V.A8); format: physicochemical
[2] = test system: caterpillars of the armyworm (Spodoptera frugiperda); assay: Spodoptera frugiperda test (SPODFR spray treatment); format: in vivo; settings: Spodoptera frugiperda, 168 h, read-out: activity in % (caterpillars killed)
[3] = test system: larvae of the mustard beetle (Phaedon cochleariae); assay: Phaedon test (PHAECO spray treatment); settings: Phaedon cochleariae, 168 h, read-out: activity in % (beetle larvae killed)
[4] = reversed-phase C18 HPLC column, pH 2.7, HPLC reversed-phase C18, acidic range pH 2.7 (HCOOH), only or first value of the cell, read-out: log P
[5] = application rate 100 g/ha, after 7 days

`O=C(NCc1ccc(OC(F)(F)F)cc1)c1cc(Br)cc(Cl)c1NC(=O)c1cc(Cn2nnc(C(F)(F)F)n2)nn1-c1ncccc1Cl` [Example 195] gave a chromatographic logP [1, 4] of 4.31, a pest or weed control at 100 g/ha [2, 5] of 100% and a pest or weed control at 100 g/ha [3] of 100%.

In the case of `Cc1cc(Cl)cc(C(=O)NC(C)c2ccc(OC(F)(F)F)cc2)c1NC(=O)c1cc(Cn2nnc(C(F)(F)F)n2)nn1-c1ncccc1Cl` (stereo not drawn) [Example 117], the chromatographic logP [1, 4] is reported as 4.52, the pest or weed control at 100 g/ha [2, 5] is reported as 100% and the pest or weed control at 100 g/ha [3] is reported as 100%.

In the case of `Cc1ccc(Cl)c(C(=O)NCc2cccc(Cl)c2)c1NC(=O)c1cc(Cn2nnc(C(F)(F)F)n2)nn1-c1ncccc1Cl` [Example 197], the chromatographic logP ([1]; pH 2.7, log P) is reported as 3.74, the pest or weed control at 100 g/ha [2] is reported as 100% and the pest or weed control at 100 g/ha [3] is reported as 100%.

In the case of `Cc1cc(Cl)cc(C(=O)NCc2cccc(C(F)(F)F)c2)c1NC(=O)c1cc(Cn2nnc(C(F)(F)F)n2)nn1-c1ncccc1Cl` [Example 95], the chromatographic logP [1, 4] is reported as 4.23, the pest or weed control at 100 g/ha [2, 5] is reported as 100% and the pest or weed control at 100 g/ha [3] is reported as 100%.

In the case of `Cc1cc(C#N)cc(C(=O)NCc2ccc(Cl)cc2Cl)c1NC(=O)c1cc(Cn2nnc(C(F)(F)F)n2)nn1-c1ccccc1Cl` [Example 77], the chromatographic logP [1, 4] is reported as 4.42, the pest or weed control at 100 g/ha [2, 5] is reported as 100% and the pest or weed control at 100 g/ha [3] is reported as 100%.

In the case of `Cc1cc(C#N)cc(C(=O)NCc2cccc(OC(F)F)c2)c1NC(=O)c1cc(Cn2nnc(C(F)(F)F)n2)nn1-c1c(Cl)cccc1Cl` [Example 215], the chromatographic logP [1, 4] is reported as 3.78, the pest or weed control at 100 g/ha [2, 5] is reported as 100% and the pest or weed control at 100 g/ha [3] is reported as 100%.

Work on `Cc1cc(Cl)cc(C(=O)NCc2ccc(OC(F)F)cc2)c1NC(=O)c1cc(Cn2nnc(C(F)F)n2)nn1-c1ncccc1Cl` [Example 161] yielded a chromatographic logP [1, 4] of 3.42, a pest or weed control at 100 g/ha [2, 5] of 100% and a pest or weed control at 100 g/ha [3] of 100%.

Work on `Cc1cc(Cl)cc(C(=O)NC(C)c2cccc(Cl)c2)c1NC(=O)c1cc(Cn2nnc(C(F)(F)F)n2)nn1-c1ncccc1Cl` (stereo not drawn) [Example 110] yielded a chromatographic logP ([1]; pH 2.7, log P) of 4.31, a pest or weed control at 100 g/ha [2] of 100% and a pest or weed control at 100 g/ha [3] of 100%.

For `O=C(NCc1ccccc1OC(F)(F)F)c1cc(Cl)cc(F)c1NC(=O)c1cc(Cn2nnc(C(F)(F)F)n2)nn1-c1ncccc1Cl` [Example 209], the chromatographic logP [1, 4] was 4.12, the pest or weed control at 100 g/ha [2, 5] was 100% and the pest or weed control at 100 g/ha [3] was 100%.

In the case of `Cc1cc(Cl)cc(C(=O)NCc2ccc(F)cc2F)c1NC(=O)c1cc(Cn2nnc(C(F)(F)F)n2)nn1-c1ncccc1Cl` [Example 107], the chromatographic logP ([1]; pH 2.7, log P) is reported as 3.9, the pest or weed control at 100 g/ha [2] is reported as 100% and the pest or weed control at 100 g/ha [3] is reported as 100%.

For `COc1ccccc1CNC(=O)c1cc(Cl)cc(C)c1NC(=O)c1cc(Cn2nnc(C(F)(F)F)n2)nn1-c1ncccc1Cl` [Example 100], the chromatographic logP ([1]; pH 2.7, log P) was 3.94, the pest or weed control at 100 g/ha [2] was 100% and the pest or weed control at 100 g/ha [3] was 100%.

For `Cc1cc(C#N)cc(C(=O)NCc2ccccc2OC(F)(F)F)c1NC(=O)c1cc(Cn2nnc(C(F)(F)F)n2)nn1-c1ccccc1Cl` [Example 217], the chromatographic logP [1, 4] was 4.28, the pest or weed control at 100 g/ha [2, 5] was 100% and the pest or weed control at 100 g/ha [3] was 100%.

`Cc1cc(Cl)cc(C(=O)NCc2ccc(C(F)(F)F)cc2)c1NC(=O)c1cc(Cn2nnc(C(F)(F)F)n2)nn1-c1ncccc1Cl` [Example 96] showed a chromatographic logP [1, 4] of 4.21, a pest or weed control at 100 g/ha [2, 5] of 100% and a pest or weed control at 100 g/ha [3] of 100%.

With `Cc1cc(C#N)cc(C(=O)NCc2ccccc2OC(F)F)c1NC(=O)c1cc(Cn2nnc(C(F)(F)F)n2)nn1-c1c(Cl)cccc1Cl` [Example 189] the chromatographic logP [1, 4] was 3.75, the pest or weed control at 100 g/ha [2, 5] was 100% and the pest or weed control at 100 g/ha [3] was 100%.

For `Cc1cc(Cl)cc(C(=O)NCc2ccc(Cl)nc2)c1NC(=O)c1cc(Cn2nnc(C(F)(F)F)n2)nn1-c1ncccc1Cl` [Example 235], the chromatographic logP ([1]; pH 2.7, log P) was 3.42, the pest or weed control at 100 g/ha [2] was 100% and the pest or weed control at 100 g/ha [3] was 100%.

For `COc1ccc(CNC(=O)c2cc(C#N)cc(C)c2NC(=O)c2cc(Cn3nnc(C(F)(F)F)n3)nn2-c2ccccc2Cl)cc1` [Example 76], the chromatographic logP [1, 4] was 3.77, the pest or weed control at 100 g/ha [2, 5] was 100% and the pest or weed control at 100 g/ha [3] was 100%.

For `Cc1c(F)ccc(C(=O)NCc2ccc(Cl)cc2)c1NC(=O)c1cc(Cn2nnc(C(F)(F)F)n2)nn1-c1ncccc1Cl` [Example 184], the chromatographic logP ([1]; pH 2.7, log P) was 3.8, the pest or weed control at 100 g/ha [2] was 100% and the pest or weed control at 100 g/ha [3] was 100%.

Work on `Cc1cc(C#N)cc(C(=O)NC(C)c2ccc(Cl)cc2)c1NC(=O)c1cc(Cn2nnc(C(F)(F)F)n2)nn1-c1ncccc1Cl` (stereo not drawn) [Example 67] yielded a chromatographic logP [1, 4] of 3.91, a pest or weed control at 100 g/ha [2, 5] of 100% and a pest or weed control at 100 g/ha [3] of 100%.

In the case of `Cc1cc(C#N)cc(C(=O)NCc2cccc(Cl)c2)c1NC(=O)c1cc(Cn2nnc(C(F)(F)F)n2)nn1-c1ccccc1Cl` [Example 75], the chromatographic logP [1, 4] is reported as 3.76, the pest or weed control at 100 g/ha [2, 5] is reported as 100% and the pest or weed control at 100 g/ha [3] is reported as 100%.

`Cc1ccccc1CNC(=O)c1cc(Cl)cc(C)c1NC(=O)c1cc(Cn2nnc(C(F)(F)F)n2)nn1-c1ncccc1Cl` [Example 119] gave a chromatographic logP ([1]; pH 2.7, log P) of 4.03, a pest or weed control at 100 g/ha [2] of 100% and a pest or weed control at 100 g/ha [3] of 100%.
